# Test results as given in ChEMBL document CHEMBL4330132, “5-Keto-3-cyano-2,4-diaminothiophenes as selective maternal embryonic leucine zipper kinase inhibitors” (Bioorg Med Chem Lett, 2019).
# Assays:
# [1] = molecular target: Insulin receptor-related protein (Homo sapiens) (UniProt P14616); assay: Binding affinity to wild-type human partial length INSRR (R950 to E1278 residues) expressed in bacterial expression system assessed as residual binding level at 1 uM by Kinomescan method relative to control
# Chain of Insulin receptor-related protein (Homo sapiens) (P14616 27-742 limits assumed): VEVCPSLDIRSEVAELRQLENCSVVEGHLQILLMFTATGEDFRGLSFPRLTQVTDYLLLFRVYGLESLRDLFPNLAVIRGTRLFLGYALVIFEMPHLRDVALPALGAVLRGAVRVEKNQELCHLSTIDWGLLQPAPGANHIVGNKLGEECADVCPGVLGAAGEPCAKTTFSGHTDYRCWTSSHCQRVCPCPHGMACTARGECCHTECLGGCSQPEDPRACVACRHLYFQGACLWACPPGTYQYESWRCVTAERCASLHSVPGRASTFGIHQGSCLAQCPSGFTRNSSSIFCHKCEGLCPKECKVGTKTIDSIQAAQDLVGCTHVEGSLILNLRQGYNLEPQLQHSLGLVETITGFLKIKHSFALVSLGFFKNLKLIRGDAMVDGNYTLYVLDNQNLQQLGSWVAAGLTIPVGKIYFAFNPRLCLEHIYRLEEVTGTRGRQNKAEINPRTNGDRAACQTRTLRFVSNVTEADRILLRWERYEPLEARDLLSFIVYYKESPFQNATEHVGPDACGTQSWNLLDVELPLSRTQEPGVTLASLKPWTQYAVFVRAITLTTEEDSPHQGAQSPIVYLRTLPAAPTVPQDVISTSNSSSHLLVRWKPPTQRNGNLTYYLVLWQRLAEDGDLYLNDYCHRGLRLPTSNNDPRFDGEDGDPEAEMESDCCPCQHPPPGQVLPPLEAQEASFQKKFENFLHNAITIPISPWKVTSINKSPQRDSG
# Chain of Insulin receptor-related protein (Homo sapiens) (P14616 747-1297 limits assumed): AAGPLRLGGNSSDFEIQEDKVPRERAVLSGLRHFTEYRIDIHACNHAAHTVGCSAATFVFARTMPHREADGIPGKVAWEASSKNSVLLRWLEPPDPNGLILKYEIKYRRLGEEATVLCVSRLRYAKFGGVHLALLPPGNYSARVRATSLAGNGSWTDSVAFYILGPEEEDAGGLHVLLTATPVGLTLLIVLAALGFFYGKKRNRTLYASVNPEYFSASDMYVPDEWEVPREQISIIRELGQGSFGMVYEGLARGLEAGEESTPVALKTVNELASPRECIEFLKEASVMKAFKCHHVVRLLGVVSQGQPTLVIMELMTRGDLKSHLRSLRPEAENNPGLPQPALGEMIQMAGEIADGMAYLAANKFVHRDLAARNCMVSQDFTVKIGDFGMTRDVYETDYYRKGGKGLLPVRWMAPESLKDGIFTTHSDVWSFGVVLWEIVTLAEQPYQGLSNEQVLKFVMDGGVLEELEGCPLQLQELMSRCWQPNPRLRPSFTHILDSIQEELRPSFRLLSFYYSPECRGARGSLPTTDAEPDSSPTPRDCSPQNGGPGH
# [2] = molecular target: Activin receptor type-2B (Homo sapiens) (UniProt Q13705); assay: Binding affinity to wild-type human ACVR2B (H169 to D504 residues) expressed in bacterial expression system assessed as residual binding level at 1 uM by Kinomescan method relative to control
# [3] = molecular target: SRSF protein kinase 1 (Homo sapiens) (UniProt Q96SB4); assay: Binding affinity to wild-type human full length SRPK1 (M1 to S655 residues) expressed in bacterial expression system assessed as residual binding level at 1 uM by Kinomescan method relative to control
# [4] = molecular target: Serine/threonine-protein kinase DCLK2 (Homo sapiens) (UniProt Q8N568); assay: Binding affinity to wild-type human partial length DCAMKL2 (K273 to V664 residues) expressed in bacterial expression system assessed as residual binding level at 1 uM by Kinomescan method relative to control
# [5] = molecular target: Serine/threonine-protein kinase PAK 6 (Homo sapiens) (UniProt Q9NQU5); assay: Binding affinity to wild-type human partial length PAK6 (N298 to C681 residues) expressed in bacterial expression system assessed as residual binding level at 1 uM by Kinomescan method relative to control
# Chain of Serine/threonine-protein kinase PAK 6 (Homo sapiens) (Q9NQU5 whole entry, looked up, the tested form may be a part): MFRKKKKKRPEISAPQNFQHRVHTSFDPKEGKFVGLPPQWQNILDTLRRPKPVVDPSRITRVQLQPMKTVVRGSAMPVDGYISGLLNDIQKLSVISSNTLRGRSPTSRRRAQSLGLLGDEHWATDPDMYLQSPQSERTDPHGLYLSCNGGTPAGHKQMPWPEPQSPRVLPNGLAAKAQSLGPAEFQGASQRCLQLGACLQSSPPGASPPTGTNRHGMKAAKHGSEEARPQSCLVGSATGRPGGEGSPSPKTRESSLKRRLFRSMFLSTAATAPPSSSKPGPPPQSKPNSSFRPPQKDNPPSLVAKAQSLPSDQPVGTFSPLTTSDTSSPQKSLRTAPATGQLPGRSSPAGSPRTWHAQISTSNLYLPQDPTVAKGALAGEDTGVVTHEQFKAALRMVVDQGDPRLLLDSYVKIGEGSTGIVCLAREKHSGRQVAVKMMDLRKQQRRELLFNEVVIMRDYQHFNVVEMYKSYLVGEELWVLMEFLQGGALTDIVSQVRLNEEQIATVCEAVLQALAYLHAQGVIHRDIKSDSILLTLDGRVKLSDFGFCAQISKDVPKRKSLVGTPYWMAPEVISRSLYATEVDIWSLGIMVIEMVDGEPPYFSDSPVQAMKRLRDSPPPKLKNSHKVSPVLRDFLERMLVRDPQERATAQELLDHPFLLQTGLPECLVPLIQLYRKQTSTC
# [6] = molecular target: STE20/SPS1-related proline-alanine-rich protein kinase (Homo sapiens) (UniProt Q9UEW8); assay: Binding affinity to wild-type human partial length STK39 (P43 to I357 residues) expressed in mammalian expression system assessed as residual binding level at 1 uM by Kinomescan method relative to control
# [7] = system: Phosphatidylinositol 4,5-bisphosphate 3-kinase catalytic subunit alpha isoform (Homo sapiens), P42336 [E545K]; assay: Binding affinity to human partial length PIK3CA E545K mutant (R108 to N1068 residues) expressed in mammalian expression system assessed as residual binding level at 1 uM by Kinomescan method relative to control
# [8] = molecular target: Receptor-interacting serine/threonine-protein kinase 1 (Homo sapiens) (UniProt Q13546); assay: Binding affinity to wild-type human partial length RIPK1 (M1 to K305 residues) expressed in bacterial expression system assessed as residual binding level at 1 uM by Kinomescan method relative to control
# [9] = molecular target: Serine/threonine-protein kinase LATS1 (Homo sapiens) (UniProt O95835); assay: Binding affinity to wild-type human partial length LATS1 (Q678 to V1130 residues) expressed in bacterial expression system assessed as residual binding level at 1 uM by Kinomescan method relative to control
# Chain of Serine/threonine-protein kinase LATS1 (Homo sapiens) (O95835 whole entry, the tested form may be a part): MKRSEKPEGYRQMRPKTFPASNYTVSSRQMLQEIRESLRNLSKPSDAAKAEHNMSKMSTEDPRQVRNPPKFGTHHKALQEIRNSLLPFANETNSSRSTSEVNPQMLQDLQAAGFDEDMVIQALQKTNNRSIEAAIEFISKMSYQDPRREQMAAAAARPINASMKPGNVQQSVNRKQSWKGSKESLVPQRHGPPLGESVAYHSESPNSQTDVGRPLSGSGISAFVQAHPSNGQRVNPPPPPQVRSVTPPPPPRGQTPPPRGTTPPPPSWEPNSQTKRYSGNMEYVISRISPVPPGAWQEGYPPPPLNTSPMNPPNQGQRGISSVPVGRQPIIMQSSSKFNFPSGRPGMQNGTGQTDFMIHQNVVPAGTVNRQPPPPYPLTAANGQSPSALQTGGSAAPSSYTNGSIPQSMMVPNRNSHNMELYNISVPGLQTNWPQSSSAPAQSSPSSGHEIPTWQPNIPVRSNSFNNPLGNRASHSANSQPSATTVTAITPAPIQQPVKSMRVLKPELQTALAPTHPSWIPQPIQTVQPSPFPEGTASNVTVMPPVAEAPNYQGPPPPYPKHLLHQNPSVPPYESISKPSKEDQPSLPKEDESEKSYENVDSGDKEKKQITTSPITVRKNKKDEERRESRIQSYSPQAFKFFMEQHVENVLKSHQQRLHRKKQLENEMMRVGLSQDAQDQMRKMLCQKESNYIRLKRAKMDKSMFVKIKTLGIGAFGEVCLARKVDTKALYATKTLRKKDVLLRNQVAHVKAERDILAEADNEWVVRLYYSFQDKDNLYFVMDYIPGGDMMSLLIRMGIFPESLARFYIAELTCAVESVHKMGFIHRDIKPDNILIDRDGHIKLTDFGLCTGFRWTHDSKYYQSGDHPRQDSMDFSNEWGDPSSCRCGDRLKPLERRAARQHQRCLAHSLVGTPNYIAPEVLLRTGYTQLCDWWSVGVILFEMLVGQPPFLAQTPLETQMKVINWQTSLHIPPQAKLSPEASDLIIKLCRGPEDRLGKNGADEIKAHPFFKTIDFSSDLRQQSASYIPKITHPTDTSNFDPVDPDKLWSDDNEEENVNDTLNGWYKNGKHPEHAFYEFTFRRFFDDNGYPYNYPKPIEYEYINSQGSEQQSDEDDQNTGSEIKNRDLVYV
# [10] = molecular target: Serine/threonine-protein kinase 32A (Homo sapiens) (UniProt Q8WU08); assay: Binding affinity to wild-type human full length YANK1 (M1 to L396 residues) expressed in mammalian expression system assessed as residual binding level at 1 uM by Kinomescan method relative to control
# Chain of Serine/threonine-protein kinase 32A (Homo sapiens) (Q8WU08 whole entry, the tested form may be a part): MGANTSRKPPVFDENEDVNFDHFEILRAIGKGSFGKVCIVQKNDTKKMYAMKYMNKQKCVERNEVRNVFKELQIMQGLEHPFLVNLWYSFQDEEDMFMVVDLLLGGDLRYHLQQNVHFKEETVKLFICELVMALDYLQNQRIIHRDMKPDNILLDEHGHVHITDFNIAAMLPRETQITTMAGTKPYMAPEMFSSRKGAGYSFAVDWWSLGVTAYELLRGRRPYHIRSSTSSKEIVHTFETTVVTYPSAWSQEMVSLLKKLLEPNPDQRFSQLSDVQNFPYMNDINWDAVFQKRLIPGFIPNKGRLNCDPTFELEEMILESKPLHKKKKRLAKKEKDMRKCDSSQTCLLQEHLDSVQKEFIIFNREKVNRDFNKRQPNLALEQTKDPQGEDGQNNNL
# [11] = molecular target: Hormonally up-regulated neu tumor-associated kinase (Homo sapiens) (UniProt P57058); assay: Binding affinity to wild-type human partial length HUNK (A31 to K354 residues) expressed in bacterial expression system assessed as residual binding level at 1 uM by Kinomescan method relative to control
# [12] = molecular target: Serine/threonine-protein kinase PAK 4 (Homo sapiens) (UniProt O96013); assay: Binding affinity to wild-type human partial length PAK4 (Q144 to R438 residues) expressed in bacterial expression system assessed as residual binding level at 1 uM by Kinomescan method relative to control
# Chain of Serine/threonine-protein kinase PAK 4 (Homo sapiens) (O96013 whole entry, looked up, the tested form may be a part): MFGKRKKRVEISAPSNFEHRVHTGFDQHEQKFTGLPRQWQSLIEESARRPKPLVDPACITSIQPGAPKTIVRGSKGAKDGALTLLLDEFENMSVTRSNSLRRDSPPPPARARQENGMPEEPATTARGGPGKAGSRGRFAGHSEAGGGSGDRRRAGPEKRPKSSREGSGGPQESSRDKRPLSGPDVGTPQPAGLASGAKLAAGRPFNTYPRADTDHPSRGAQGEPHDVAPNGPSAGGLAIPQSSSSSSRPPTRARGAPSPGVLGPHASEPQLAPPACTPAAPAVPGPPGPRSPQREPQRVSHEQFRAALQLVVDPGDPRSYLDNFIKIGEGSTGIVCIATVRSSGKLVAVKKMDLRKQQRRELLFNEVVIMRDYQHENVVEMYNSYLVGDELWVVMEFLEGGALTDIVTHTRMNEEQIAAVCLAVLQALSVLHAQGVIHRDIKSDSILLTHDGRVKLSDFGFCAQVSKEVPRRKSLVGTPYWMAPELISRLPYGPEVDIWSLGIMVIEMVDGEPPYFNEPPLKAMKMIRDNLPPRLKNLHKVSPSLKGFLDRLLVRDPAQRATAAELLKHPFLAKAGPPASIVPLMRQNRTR
# [13] = molecular target: Tyrosine-protein kinase HCK (Homo sapiens) (UniProt P08631); assay: Binding affinity to wild-type human full length HCK (M22 to P526 residues) expressed in bacterial expression system assessed as residual binding level at 1 uM by Kinomescan method relative to control
# [14] = molecular target: TGF-beta receptor type-2 (Homo sapiens) (UniProt P37173); assay: Binding affinity to wild-type human partial length TGFBR2 (I218 to K567 residues) expressed in bacterial expression system assessed as residual binding level at 1 uM by Kinomescan method relative to control
# [15] = molecular target: Tyrosine-protein kinase Tec (Homo sapiens) (UniProt P42680); assay: Binding affinity to wild-type human partial length TEC (L341 to D620 residues) expressed in bacterial expression system assessed as residual binding level at 1 uM by Kinomescan method relative to control
# [16] = molecular target: Serine/threonine-protein kinase SIK1 (Homo sapiens) (UniProt P57059); assay: Binding affinity to wild-type human partial length SIK (M1 to Y304 residues) expressed in bacterial expression system assessed as residual binding level at 1 uM by Kinomescan method relative to control
# [17] = molecular target: Glycogen synthase kinase-3 beta (Homo sapiens) (UniProt P49841); assay: Binding affinity to wild-type human full length GSK3B (M1 to T433 residues) expressed in mammalian expression system assessed as residual binding level at 1 uM by Kinomescan method relative to control
# [18] = molecular target: Mitogen-activated protein kinase 14 (Homo sapiens) (UniProt Q16539); assay: Binding affinity to wild-type human full length p38-alpha (M1 to S360 residues) expressed in bacterial expression system assessed as residual binding level at 1 uM by Kinomescan method relative to control
# Chain of Mitogen-activated protein kinase 14 (Homo sapiens) (Q16539 whole entry, the tested form may be a part): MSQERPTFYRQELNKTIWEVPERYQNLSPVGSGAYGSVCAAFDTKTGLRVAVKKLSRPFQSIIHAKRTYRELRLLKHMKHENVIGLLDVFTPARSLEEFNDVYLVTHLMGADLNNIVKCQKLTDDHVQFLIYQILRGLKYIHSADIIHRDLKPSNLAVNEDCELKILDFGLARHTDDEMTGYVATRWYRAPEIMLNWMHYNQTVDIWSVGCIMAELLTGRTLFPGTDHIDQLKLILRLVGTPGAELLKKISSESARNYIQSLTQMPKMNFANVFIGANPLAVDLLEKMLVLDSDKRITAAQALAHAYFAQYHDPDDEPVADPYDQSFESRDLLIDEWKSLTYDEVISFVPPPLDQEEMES
# [19] = molecular target: Serine/threonine-protein kinase RIO3 (Homo sapiens) (UniProt O14730); assay: Binding affinity to wild-type human full length RIOK3 (M1 to E519 residues) expressed in bacterial expression system assessed as residual binding level at 1 uM by Kinomescan method relative to control
# [20] = molecular target: 5'-AMP-activated protein kinase catalytic subunit alpha-2 (Homo sapiens) (UniProt P54646); assay: Binding affinity to wild-type human partial length AMPK alpha2 (M1 to E306 residues) expressed in bacterial expression system assessed as residual binding level at 1 uM by Kinomescan method relative to control
# Chain of 5'-AMP-activated protein kinase catalytic subunit alpha-2 (Homo sapiens) (P54646 whole entry, looked up, the tested form may be a part): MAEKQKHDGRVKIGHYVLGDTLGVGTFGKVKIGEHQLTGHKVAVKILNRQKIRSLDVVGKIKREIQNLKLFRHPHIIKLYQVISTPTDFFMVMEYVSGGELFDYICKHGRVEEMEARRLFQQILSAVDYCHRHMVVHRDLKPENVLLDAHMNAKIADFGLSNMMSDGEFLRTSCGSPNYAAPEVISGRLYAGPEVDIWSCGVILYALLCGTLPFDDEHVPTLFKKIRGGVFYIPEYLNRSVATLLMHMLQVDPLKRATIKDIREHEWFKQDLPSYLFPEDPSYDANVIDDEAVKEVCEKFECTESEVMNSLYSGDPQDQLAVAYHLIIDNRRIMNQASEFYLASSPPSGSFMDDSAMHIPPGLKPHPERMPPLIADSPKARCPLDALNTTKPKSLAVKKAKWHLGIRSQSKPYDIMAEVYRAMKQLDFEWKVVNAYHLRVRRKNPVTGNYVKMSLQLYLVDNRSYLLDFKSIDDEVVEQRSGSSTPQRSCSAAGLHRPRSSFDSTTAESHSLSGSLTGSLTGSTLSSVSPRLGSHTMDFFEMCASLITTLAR
# [21] = molecular target: Dual serine/threonine and tyrosine protein kinase (Homo sapiens) (UniProt Q6XUX3); assay: Binding affinity to wild-type human full length RIPK5 (M1 to T929 residues) expressed in mammalian expression system assessed as residual binding level at 1 uM by Kinomescan method relative to control
# [22] = molecular target: Mitogen-activated protein kinase kinase kinase kinase 5 (Homo sapiens) (UniProt Q9Y4K4); assay: Binding affinity to wild-type human partial length MAP4K5 (M1 to P297 residues) expressed in bacterial expression system assessed as residual binding level at 1 uM by Kinomescan method relative to control
# [23] = molecular target: cAMP-dependent protein kinase catalytic subunit beta (Homo sapiens) (UniProt P22694); assay: Binding affinity to wild-type human full length PKAC-beta (M1 to F351 residues) expressed in bacterial expression system assessed as residual binding level at 1 uM by Kinomescan method relative to control
# [24] = molecular target: Serine/threonine-protein kinase N1 (Homo sapiens) (UniProt Q16512); assay: Binding affinity to wild-type human partial length PKN1 (E598 to C948 residues) expressed in bacterial expression system assessed as residual binding level at 1 uM by Kinomescan method relative to control
smiles,measurement,setting,value
CC(C)Nc1sc(C(=O)c2ccc(Cl)s2)c(N)c1C#N,Activity,[1],76%
same,Activity,[2],92%
same,Activity,[3],100%
same,Activity,[4],100%
same,Activity,[5],79%
same,Activity,[6],72%
same,Activity,[7],80%
same,Activity,[8],100%
same,Activity,[9],98%
same,Activity,[10],98%
same,Activity,[11],71%
same,Activity,[12],88%
same,Activity,[13],90%
same,Activity,[14],100%
same,Activity,[15],94%
same,Activity,[16],100%
same,Activity,[17],97%
same,Activity,[18],95%
same,Activity,[19],38%
same,Activity,[20],100%
same,Activity,[21],85%
same,Activity,[22],78%
same,Activity,[23],100%
same,Activity,[24],56%
